Assay results from patent US11213530B2, “Gallium in the treatment of coronavirus disease” (priority 2020, dated 2022).

Test system: SARS-CoV-2 (WIV04)
Format: cell-based
Settings: Vero-E6 cells

Cc1occc(=O)c1[O-].Cc1occc(=O)c1[O-].Cc1occc(=O)c1[O-].[Ga+3] [gallium maltolate]
in vitro antiviral activity (MOI 0.005, 0.1 μM to 100 μM, 24 hours, FIG. 1): pronounced, dose-dependent in vitro antiviral activity | EC50 (MOI 0.005, viral RNA in culture media by qRT-PCR at 24 hours after treatment, read-out: concentration that inhibited viral replication by 50% (EC50)): ~14 µM
